Drawing on patent US20240115512A1, “PROCESS FOR PREPARING NANOFORMULATION FOR DELIVERY OF BERBAMINE” (priority 2021, published 2024), this text covers MIC for 1 compound.

What all share (assay): MIC by serial dilution method
Common to all, as to assay type: cell-based

The test system of test [1] is Staphylococcus hemolyticus (clinical isolate). Here is the method: (§1) Berbamine was tested for a panel of bacterial strains including Pseudomonas aeruginosa (ATCC 27853), Acinetobacter baumannii (ATCC 19606), Staphylococcus aureus (ATCC 29213) and clinical isolates of Klebsiella pneumoniae, Staphylococcus epidermidis, Staphylococcus hemolyticus and Burkholderia cepacia complex using serial dilution method. Ceftazidime was used as the standard antibiotic for validating the protocol.

The subject of test [2] is Staphylococcus aureus (ATCC 29213). As to conditions: ATCC29213. Here is the method: as §1
Test [3] concerns Klebsiella pneumoniae (clinical isolate). The method, then: as §1
Test [4] relates to Staphylococcus epidermidis (clinical isolate). Here is the method:
as §1

The subject of test [5] is Acinetobacter baumannii (ATCC 19606). The note with it: ATCC19606. The method, then: as §1

Converted amounts (≈) assume the structure as drawn.

For the compound `COc1cc2c3cc1Oc1c(OC)c(OC)cc4c1[C@@H](Cc1ccc(O)c(c1)Oc1ccc(cc1)C[C@@H]3N(C)CC2)N(C)CC4` [berbamine], the MIC in test [1] was 128 mg/L (≈ 210 µM); in test [2], 256 mg/L (≈ 421 µM); in test [3], above 4100 mg/L; in test [4], 128 mg/L (≈ 210 µM); in test [5], 256 mg/L (≈ 421 µM).
